In patent US20230190725A1, “MEK INHIBITORS FOR CORNEAL SCARRING AND NEOVASCULARIZATION” (THE BOARD OF TRUSTEES OF THE UNIVERSITY OF ILLINOIS, priority 2019, published 2023):
Where two headings read alike, the source gives them in different places.

How the values were obtained:
[1] = tested on: PAX6; experiment: PAX6 mRNA (RT-PCR) and protein (SDS-PAGE vs GAPDH) expression in human corneal epithelial cells; assay type: cell-based; conditions: for PAX6 protein expression: human cornea epithelium cells, 48 hours of treatment
Method: For example, PD0325901 (PD) was tested in human corneal epithelial cells (HCEC).
HCEC were treated with a PD composition comprising 1 μM PD dissolved in culture media for up to 120 hours. PAX6 protein levels were detected by SDS-PAGE and quantified by comparing the levels of GAPDH protein (FIG. 1A). In the same treated corneal epithelial cells, PAX6 mRNA expression was measured by RT-PCR using three different primers. (FIG. 1B).
In summary, the MEK inhibition increased PAX6 mRNA and protein expressions in human corneal epithelial cells (2.7±0.2 & 3.0±0.3 folds).

[2] = tested on: mouse model of Aniridia; assay type: in vivo; conditions: for Corneal stromal thickness: P30, OCT, central cornea, WT 50.5±1.1 μm; for PAX6 protein expression in corneas: P30 PAX6 staining, compared to control; for corneal whole mount CK12 staining intensity: P90, Normal CK12 intensity: 100%; for Corneal scarring (ratio of scar area to total corneal area): slit lamp images
Method: Aniridia is a human condition with PAX6 mutation that develops corneal scarring and neovascularization. The MEK pathway is known to inhibit the PAX6 pathway, therefore it was investigated whether MEK inhibitors can indirectly stimulate PAX6 production. MEK inhibitors were tested in vivo, in a mouse model of Aniridia which allowed for investigation corneal opacification, scarring and neovascularization. Oral and topical formulations were optimized using an exemplary MEK inhibitor, such as PD0325901 (PD).
Aniridia mice were treated with or topical PD composition or vehicle, from postnatal day P5 to P30. Wild type (WT) littermates were used as normal reference. OCT and slit lamp images were used to compare the corneal epithelial/stromal thickness, clarity and scarring. H&E and immunostaining with PAX6 and Cytokeratin (CK)12 were used to compare the morphology, protein expression and differentiation. P30 PAX6 staining confirmed increase in PAX6 protein expression in corneas with both oral (2.3±0.2 folds) and topical (2.5±0.1 folds) methods (P<0.001) (oral data not shown, topical data FIG. 3A).
FIG. 2 provides the data from the topical administration of PD compositions. […] The area of scarring was measured manually based on the corneal opacification in the scar area on the slit lamp images using ImageJ (NIH). The ratio of the scar area to total corneal area was reported as a percentage. […] These measurements show the promotion of a more normal differentiation of the corneal epithelium and stroma (FIG. 2). Corneal epithelial and stromal thicknesses were measured at the central cornea and outside the scar area via OCT imaging.
Hematoxylin and eosin (H&E) staining was carried out on Aniridia cornea tissue. […] FIG. 2 provides representative H&E staining of frozen sections from day 30).
Immunohistochemical staining of the mice eyes for DAPI, PAX6 and CK12 (a marker for normal corneal epithelium) was also carried out.

[3] = tested on: epithelial and limbal stem cell injury model; experiment: Corneal injury model with limbal stem cell deficiency; assay type: in vivo, mouse; conditions: up to 1 month after injury
Method: The formulation was tested in an epithelial and limbal stem cell injury model, in which we injured the epithelium of the cornea up to the limbal area, creating a severe scar forming wound with limbal stem cell deficiency.
The PD composition provided in Example 1 was tested in an injury model, in which we injured the epithelium of the cornea up to the limbal area, creating a severe scar forming wound with limbal stem cell deficiency. Using an alger brush, the corneal epithelium was scraped under general anesthesia from limbus to limbus to create a limbal stem cell deficiency model. Following this injury, corneal limbal stem cell deficiency happens, similar to human disease, and the cornea becomes scarred, opacified and vascularized by time.

[4] = tested on: ERK1 and ERK2; experiment: Western blot of ERK1/ERK2 in human corneal epithelial cells; assay type: cell-based
Text: Western blot analysis of human corneal epithelial cells confirmed that this MEK inhibitor effectively and specifically suppresses ERK1 and ERK2, while having minimal effect on p38 as the control (FIG. 10).

[5] = tested on: PAX6; experiment: PAX6 mRNA measurement in murine PAX6 heterozygote corneal MSCs; assay type: cell-based; conditions: n=3
Text: Significance determined by t test. *P<0.05. Ctrl: control. RX: treatment.

[6] = tested on: Aniridia mouse model; experiment: P90 electroretinography (ERG) in Aniridia mouse model; assay type: in vivo
Method: Retina function was assessed in the Aniridia mouse model using P90 electroretinography (ERG). Aniridia mice were treated with the PD composition described in Example 1 or vehicle.

[7] = human corneal epithelial cells, n=3, FIG. 1

O=C(c1ccc(F)c(F)c1Nc1ccc(I)cc1F)N1CC(O)([C@@H]2CCCCN2)C1 [Cobimetinib]
PAX6 protein expression [1]: induced PAX6 protein expression
PAX6 protein measurement [1, 7]: can induce PAX6 expression

O=C(NOC[C@H](O)CO)c1ccc(F)c(F)c1Nc1ccc(I)cc1F [PD0325901, Mirdametinib]
H&E histological pattern of cornea ([2]; frozen sections, day 30): more similar histological pattern to normal
toxicity of optimized formulation and dosage ([2]; mouse, in vivo, po): no toxicity
Corneal stromal thickness ([2]; oral): 24.7±4.1 μm
PAX6 protein expression in corneas ([2]; oral): 2.3±0.2 folds
corneal whole mount CK12 staining intensity ([2]; oral): 64±3%
Corneal scarring (ratio of scar area to total corneal area) ([2]; oral): 2.1±0.4%
Corneal stromal thickness ([2]; topical): 25.5±4.7 μm
PAX6 protein expression in corneas ([2]; topical): 2.5±0.1 folds
corneal whole mount CK12 staining intensity ([2]; topical): 69±32%
Corneal scarring (ratio of scar area to total corneal area) ([2]; topical): 2.3±0.6%
corneal neovascularization [3]: significantly less
corneal opacity / haziness [3]: significantly less
corneal neovascularization ([3]; listed as PD): significantly reduced
corneal opacity / haziness ([3]; listed as PD): significantly reduced
PAX6 mRNA measurement [1, 7]: increase in PAX6 expression
PAX6 protein measurement [1, 7]: increase in PAX6 expression
ERK1/ERK2 inhibition [4]: specific ERK1/ERK2 inhibition
PAX6 mRNA measurement [5]: increase in PAX6 expression
ocular/retinal function ([6]; P90 electroretinography, compared to the control group): significantly better ocular/retinal function
Photopic β wave ([6]; topical, P90 ERG): 102.1 ± 50.9
Scotopic α wave ([6]; topical, P90 ERG): −214.5 ± 64.1
Scotopic β wave ([6]; topical, P90 ERG): 244.8 ± 120.1

COc1cc(F)c(F)c(Nc2ccc(I)cc2F)c1NS(=O)(=O)C1(C[C@H](O)CO)CC1 [Refametinib, refametinib]
PAX6 protein expression [1]: induced PAX6 protein expression
PAX6 protein measurement [1, 7]: can induce PAX6 expression
